Laboratory results as given in patent US9480740B2, “Synthetic glucopyranosyl lipid adjuvants” (priority 2009, dated 2016).

Experiments:
TLR4, MD-2, and CD14 = biological target: T1, TLR4, MD-2, and CD14 (Homo sapiens, UniProt O00206+Q9Y6Y9); assay: NF-kB reporter (secreted alkaline phosphatase, QUANTIBlue) assay in HEK 293 cells expressing TLR4, MD-2 and CD14; assay type: cell-based
T1 construct: host or cells: HEK 293
Method: (§1) Compound IX was tested in vitro using HEK 293 cells (InvivoGen) with expression vectors encoding 1) TLR4, MD-2, and CD14, or 2) TLR2 and TLR6 to define compound activity and dependence on TLR4, and to exclude activation of TLR2. These HEK 293 cell lines were further stably transfected with the NF-kB reporter vector pNifty-2 such that alkaline phosphatase is secreted into the growth media upon activation of the TLR signaling pathway. Transfected cell lines were plated at 5×10^4 cells per well in a 96-well plates and stimulated for 16-24 hours cultured in medium containing serial dilutions of Compound IX and other adjuvants. Secreted alkaline phosphatase activity was measured in the culture media using QUANTIBlue® assay (InvivoGen). The data was measured as enhancement of NF-kB above the PBS negative control. […] Compound IX was designed based on structural considerations of the reported atomic structure of MD2 and TLR4. […] Thus, it is expected that Compound IX and other illustrative compounds of the invention can be safely administered over a broad range of concentrations, which is highly desirable in the context of reproducibility of clinical outcomes among patients and for the safety in ranging a dose for adults and children. […]

human whole blood cells = assay: Induction of immunostimulatory cytokines (MIP-1-α and TNF-α ELISA) in human whole blood; assay type: cell-based; conditions: human whole blood from two donors, 1:5 serial dilutions, 20 hour incubation
Method: In this example, human whole blood cells were stimulated with Compound IX and ELISA assays were performed to detect the induction of immunostimulatory cytokines. Serial dilutions (1:5) of Compound IX and other adjuvants were performed with phosphate buffered saline in a 96 well plate for a total of 7 dilutions. 100 μl of freshly drawn human blood from two different donors were mixed and incubated with 100 μl of adjuvant dilutions. Following a 20 hour incubation, plates were centrifuged and supernatants (˜70 μl) were collected, avoiding red blood cells, and stored at −20° C. prior performing MIP-1-α and TNF-α ELISAs using standard biochemical procedures. […] Additionally, these primary donor results mimicked the results seen in human cell lines and extend these important findings in relation to the possible dose ranges and safety profiles for this compound.

TLR2 and TLR6 = biological target: T2, TLR2 and TLR6 (Homo sapiens, UniProt O60603+Q9Y2C9); assay: NF-kB reporter (secreted alkaline phosphatase, QUANTIBlue) assay in HEK 293 cells expressing TLR2 and TLR6; assay type: cell-based; conditions: HEK 293 cells with TLR2, TLR6 and NF-kB reporter
T2 construct: host or cells: HEK 293
T2 sequence (O60603 21-784): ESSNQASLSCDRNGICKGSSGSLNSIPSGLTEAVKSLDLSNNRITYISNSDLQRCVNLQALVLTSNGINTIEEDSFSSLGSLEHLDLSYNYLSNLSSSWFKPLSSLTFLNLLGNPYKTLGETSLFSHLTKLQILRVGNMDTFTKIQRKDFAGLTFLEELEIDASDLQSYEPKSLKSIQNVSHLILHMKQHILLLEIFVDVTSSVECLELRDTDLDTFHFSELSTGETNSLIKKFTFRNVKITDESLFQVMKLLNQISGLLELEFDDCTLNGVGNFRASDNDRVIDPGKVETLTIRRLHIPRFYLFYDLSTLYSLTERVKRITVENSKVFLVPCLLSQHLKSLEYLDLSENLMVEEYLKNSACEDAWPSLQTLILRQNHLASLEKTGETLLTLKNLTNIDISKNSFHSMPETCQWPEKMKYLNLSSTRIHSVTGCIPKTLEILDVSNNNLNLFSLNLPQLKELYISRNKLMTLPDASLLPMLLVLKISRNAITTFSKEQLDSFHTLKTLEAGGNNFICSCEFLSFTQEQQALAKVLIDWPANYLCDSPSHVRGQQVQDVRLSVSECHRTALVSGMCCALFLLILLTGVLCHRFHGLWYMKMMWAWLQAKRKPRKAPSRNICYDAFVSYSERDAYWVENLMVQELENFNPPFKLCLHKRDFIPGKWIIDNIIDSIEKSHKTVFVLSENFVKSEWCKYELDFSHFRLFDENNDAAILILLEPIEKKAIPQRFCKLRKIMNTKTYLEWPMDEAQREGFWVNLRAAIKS
T2 sequence (Q9Y2C9 32-796): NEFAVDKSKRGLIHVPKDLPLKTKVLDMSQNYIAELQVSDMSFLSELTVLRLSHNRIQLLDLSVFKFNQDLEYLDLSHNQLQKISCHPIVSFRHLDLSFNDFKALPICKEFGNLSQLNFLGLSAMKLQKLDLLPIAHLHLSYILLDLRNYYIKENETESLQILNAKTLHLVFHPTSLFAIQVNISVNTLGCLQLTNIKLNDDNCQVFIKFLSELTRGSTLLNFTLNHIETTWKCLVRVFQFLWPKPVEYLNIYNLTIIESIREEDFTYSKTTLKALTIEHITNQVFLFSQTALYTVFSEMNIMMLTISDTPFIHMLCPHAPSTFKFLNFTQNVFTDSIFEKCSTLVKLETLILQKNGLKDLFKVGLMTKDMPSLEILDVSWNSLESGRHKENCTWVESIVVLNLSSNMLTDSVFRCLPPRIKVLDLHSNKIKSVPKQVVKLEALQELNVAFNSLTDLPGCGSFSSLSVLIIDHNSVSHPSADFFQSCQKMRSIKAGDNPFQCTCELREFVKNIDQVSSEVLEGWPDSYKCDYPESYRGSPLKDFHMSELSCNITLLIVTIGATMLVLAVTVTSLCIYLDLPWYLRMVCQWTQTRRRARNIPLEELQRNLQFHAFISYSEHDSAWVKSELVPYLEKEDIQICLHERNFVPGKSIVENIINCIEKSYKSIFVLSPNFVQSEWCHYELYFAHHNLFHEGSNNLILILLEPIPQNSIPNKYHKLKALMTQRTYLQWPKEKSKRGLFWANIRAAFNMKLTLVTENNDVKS
Method: as §1

[1] = tested on: ID83 antigen (Mycobacterium tuberculosis antigenic polypeptide)-specific IFN-γ secreting splenocytes; assay: ELISPOT of IFN-γ cytokine responses of splenocytes from mice vaccinated with ID83 antigen plus adjuvant; assay type: in vivo, Mice (C57BL/6)

T1 sequence (O00206 24-839): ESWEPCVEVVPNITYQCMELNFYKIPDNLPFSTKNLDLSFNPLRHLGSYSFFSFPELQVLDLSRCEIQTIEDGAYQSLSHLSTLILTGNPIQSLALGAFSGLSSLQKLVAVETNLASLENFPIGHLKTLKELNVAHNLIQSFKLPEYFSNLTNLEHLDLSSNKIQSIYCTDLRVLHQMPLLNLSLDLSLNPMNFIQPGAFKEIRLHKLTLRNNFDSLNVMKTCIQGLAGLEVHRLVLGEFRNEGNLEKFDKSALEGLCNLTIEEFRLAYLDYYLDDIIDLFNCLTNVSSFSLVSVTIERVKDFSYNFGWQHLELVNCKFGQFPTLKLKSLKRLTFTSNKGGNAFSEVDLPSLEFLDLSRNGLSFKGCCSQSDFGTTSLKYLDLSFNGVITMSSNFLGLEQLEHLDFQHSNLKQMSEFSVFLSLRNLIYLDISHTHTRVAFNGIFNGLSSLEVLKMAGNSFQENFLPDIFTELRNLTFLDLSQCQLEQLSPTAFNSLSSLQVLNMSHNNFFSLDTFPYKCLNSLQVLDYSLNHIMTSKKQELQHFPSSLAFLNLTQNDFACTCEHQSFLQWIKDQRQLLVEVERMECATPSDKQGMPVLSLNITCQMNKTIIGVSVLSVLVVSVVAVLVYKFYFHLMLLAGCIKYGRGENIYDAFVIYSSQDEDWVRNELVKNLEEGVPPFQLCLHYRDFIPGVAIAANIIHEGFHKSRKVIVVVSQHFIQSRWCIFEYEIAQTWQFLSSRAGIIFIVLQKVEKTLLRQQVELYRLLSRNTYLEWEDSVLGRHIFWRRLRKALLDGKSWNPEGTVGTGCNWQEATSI
T1 sequence (Q9Y6Y9 17-160 limits assumed): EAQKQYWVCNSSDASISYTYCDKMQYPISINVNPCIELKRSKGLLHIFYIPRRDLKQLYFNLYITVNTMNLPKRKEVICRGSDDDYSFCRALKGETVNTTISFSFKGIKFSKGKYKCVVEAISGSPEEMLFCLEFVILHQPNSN

**Q.** For CCCCCCCCCCC[C@@H](O)CC(=O)N[C@@H]1C(O)OC(CO[C@@H]2OC(CO)[C@@H](OP(=O)(O)O)[C@H](OC(=O)C[C@@H](CCCCCCCCCCC)OC(=O)CCCCCCCCC)[C@@H]2NC(=O)C[C@@H](CCCCCCCCCCC)OC(=O)CCCCCCCCC)[C@@H](O)[C@@H]1OC(=O)C[C@H](O)CCCCCCCCCCC (stereo partly drawn) [Compound IX, (3R)-((2R,3S,4R,5S)-3-((R)-3-(DECANOYLOXY)TETRADECANAMIDO)-2-(((3S,4R,5S)-3,6-DIHYDROXY-5-((R)-3-HYDROXYTETRADECANAMIDO)-4-((R)-3-HYDROXYTETRADECANOYLOXY)TETRAHYDRO-2H-PYRAN-2-YL)METHOXY)-6-(HYDROXYMETHYL)-5-(PHOSPHONOOXY)TETRAHYDRO-2H-PYRAN-4-YL) 3-(DECANOYLOXY)TETRADECANOATE], which TLR4 agonist activity (TLR4, MD-2, and CD14; HEK 293 cells with TLR4, MD-2, CD14 and NF-kB reporter) is on record?
**A.** clear TLR4 agonist activity

**Q.** And the “shape of profile with increasing concentration” value (TLR4, MD-2, and CD14; serial dilutions)?
**A.** plateaus rapidly as concentrations are increased

**Q.** What about the “immunostimulatory activity (induction of MIP-1-α and TNF-α)” value (human whole blood cells) of the same compound?
**A.** has immunostimulatory activity in primary human blood cells

**Q.** And the “induction of TLR2” value (TLR2 and TLR6)?
**A.** did not appear to be associated with induction of TLR2

**Q.** And the “ID83 antigen-specific IFN-γ cytokine responses (IFN-γ secreting cells per million of splenocytes, ELISPOT)” value ([1]; C57BL/6 mice, 8 μg ID83 + 10 μg adjuvant in stable emulsion, three immunizations at three-week intervals, three weeks after the third immunization)?
**A.** induced robust ID83 antigen-specific cytokine responses

**Q.** What about the “type of antigen-specific immune response induced (conclusion)” value ([1]; Compound IX in a stable oil formulation with ID83) of the same compound?
**A.** induced predominantly antigen-specific immune responses of the cellular type (T cell) associated with the protective TH1 phenotype
